The results in this text go back to ChEMBL document CHEMBL1157961, “Nitrogen-containing phorbol esters from Croton ciliatoglandulifer and their effects on cyclooxygenases-1 and -2” (J Nat Prod, 2006).

Assay [1] has as its target T1, Prostaglandin G/H synthase 1 (Ovis aries, UniProt P05979).
T1 sequence (P05979 whole entry): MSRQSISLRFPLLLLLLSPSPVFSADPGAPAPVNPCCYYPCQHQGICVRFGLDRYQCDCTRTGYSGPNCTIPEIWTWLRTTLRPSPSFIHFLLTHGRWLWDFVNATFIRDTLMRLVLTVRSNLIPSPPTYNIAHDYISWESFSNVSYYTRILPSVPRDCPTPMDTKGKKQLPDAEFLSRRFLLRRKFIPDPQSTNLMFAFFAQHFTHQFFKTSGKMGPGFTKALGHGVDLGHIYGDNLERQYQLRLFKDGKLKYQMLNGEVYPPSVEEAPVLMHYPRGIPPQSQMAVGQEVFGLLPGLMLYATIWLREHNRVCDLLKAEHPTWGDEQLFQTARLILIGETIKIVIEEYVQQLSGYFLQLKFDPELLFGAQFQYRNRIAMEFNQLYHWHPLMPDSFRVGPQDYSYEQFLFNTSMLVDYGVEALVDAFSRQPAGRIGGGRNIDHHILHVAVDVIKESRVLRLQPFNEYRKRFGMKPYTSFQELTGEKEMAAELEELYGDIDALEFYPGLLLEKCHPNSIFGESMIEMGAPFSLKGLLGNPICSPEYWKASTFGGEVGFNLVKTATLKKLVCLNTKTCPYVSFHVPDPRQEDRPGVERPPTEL
Nature of the assay: Inhibition of ovine COX1.

The target of assay [2] is T2, Prostaglandin G/H synthase 2 (Homo sapiens, UniProt P35354).
T2 sequence (P35354 whole entry): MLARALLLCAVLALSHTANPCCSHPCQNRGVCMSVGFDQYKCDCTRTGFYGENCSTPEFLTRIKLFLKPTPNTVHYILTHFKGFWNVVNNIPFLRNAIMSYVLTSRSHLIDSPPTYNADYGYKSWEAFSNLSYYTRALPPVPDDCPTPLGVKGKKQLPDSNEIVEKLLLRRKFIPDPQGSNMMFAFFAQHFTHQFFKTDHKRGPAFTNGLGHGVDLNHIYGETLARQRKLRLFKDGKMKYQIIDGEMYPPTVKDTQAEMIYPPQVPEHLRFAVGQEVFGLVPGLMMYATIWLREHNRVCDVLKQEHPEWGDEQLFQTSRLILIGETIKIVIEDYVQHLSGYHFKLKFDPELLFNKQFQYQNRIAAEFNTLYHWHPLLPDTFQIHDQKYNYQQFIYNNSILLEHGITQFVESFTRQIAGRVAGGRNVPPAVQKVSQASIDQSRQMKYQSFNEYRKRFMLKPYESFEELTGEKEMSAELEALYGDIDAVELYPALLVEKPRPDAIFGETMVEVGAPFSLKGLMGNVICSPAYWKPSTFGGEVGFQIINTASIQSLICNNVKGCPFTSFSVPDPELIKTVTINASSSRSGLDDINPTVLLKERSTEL
In words: Inhibition of human recombinant COX2.

Usually IC50 stands for the concentration at which inhibition is half-maximal. For `CC(=O)O[C@@]12[C@H](OC(=O)[C@@H](C(C)C)N(C)C)[C@@H](C)[C@]3(O)[C@@H]4C=C(C)C(=O)[C@@H]4CC(CO)=C[C@H]3[C@@H]1C2(C)C`, the IC50 stood at 1 nM in assay [1] and 2200 nM in assay [2].

Turning to `CC(=O)O[C@@]12[C@H](OC(=O)[C@H](C(C)C)N(C)C)[C@@H](C)[C@]3(O)[C@@H]4C=C(C)C(=O)[C@@H]4CC(CO)=C[C@H]3[C@@H]1C2(C)C`, the IC50 in assay [1] and in assay [2] was above 100000 nM throughout.

`CC(=O)O[C@@]12[C@H](OC(=O)C(=C(C)C)N(C)C)[C@@H](C)[C@]3(O)[C@@H]4C=C(C)C(=O)[C@@H]4CC(CO)=C[C@H]3[C@@H]1C2(C)C`: the IC50 in assay [2] is above 100000 nM.

Turning to `CC(=O)O[C@@]12[C@H](OC(=O)[C@@H](C(C)C)N(C)C)[C@@H](C)[C@@]3(O)[C@@H](C=C(CO)C[C@@]4(O)C(=O)C(C)=C[C@@H]34)[C@@H]1C2(C)C`, the IC50 is 1 nM in assay [1] and 2200 nM in assay [2].
